The results in this text go back to US20100210664A1, “BENZENESULFONAMIDE COMPOUNDS SUITABLE FOR TREATING DISORDERS THAT RESPOND TO MODULATION OF THE DOPAMINE D3 RECEPTOR” (priority 2007, published 2010).

Test [1] addresses T1, human dopamine D3 receptors (Homo sapiens, UniProt P35462).
T1 construct: expressed in transfected cells; host or cells: HEK-293 cells (membranes)
As to the kind of experiment: Dopamine D3 receptor binding, displacement of [125I]-iodosulpride. The note with it: membranes of HEK-293 cells stably expressing human D3; 0.1 nM [125I]-iodosulpride. As for the experimental part:
(§1) The substance to be tested was either dissolved in methanol/Chremophor® (BASF-AG) or in dimethyl sulfoxide and then diluted with water to the desired concentration.
(§2) Each assay mixture was run in triplicate.
The incubation buffer contained 50 mM tris, 120 mM NaCl, 5 mM KCl, 2 mM CaCl2, 2 mM MgCl2 and 0.1% bovine serum albumin, 10 μM quinolone and 0.1% ascorbic acid (prepared fresh daily). The buffer was adjusted to pH 7.4 with HCl.
(§3) After having been incubated at 25° C. for 60 minutes, the assay mixtures were filtered through a Whatman GF/B glass fiber filter under vacuum using a cell collecting device. The filters were transferred to scintillation viols using a filter transfer system. After 4 ml of Ultima Gold® (Packard) have been added, the samples were shaken for one hour and the radioactivity was then counted in a Beta-Counter (Packard, Tricarb 2000 or 2200CA). The cpm values were converted into dpm using a standard quench series and the program belonging to the instrument.
(§4) The inhibition curves were analyzed by means of iterative nonlinear regression analysis using the Statistical Analysis System (SAS) which is similar to the “LIGAND” program described by Munson and Rodbard.
For orientation: Displacement assays read how much labelled ligand stays bound in the presence of the test substance.

For test [2], the target named is T2, human dopamine D2L receptors (long isoform) (Homo sapiens, UniProt P14416).
T2 construct: expressed in transfected cells; host or cells: HEK-293 cells (membranes)
Nature of the test: Dopamine D2L receptor binding, displacement of [125I] iodospiperone. The note with it: ratio Ki(D2L)/Ki(D3); HEK-293 membranes. As for the experimental part: as §1, §2
The incubation buffer contained 50 mM tris, 120 mM NaCl, 5 mM KCl, 2 mM CaCl2, 2 mM MgCl2 and 0.1% bovine serum albumin. The buffer was adjusted to pH 7.4 with HCl.
as §3, §4

For orientation: Ki means the equilibrium dissociation constant of an inhibitor or competing ligand from its target.

T1 sequence (P35462 whole entry): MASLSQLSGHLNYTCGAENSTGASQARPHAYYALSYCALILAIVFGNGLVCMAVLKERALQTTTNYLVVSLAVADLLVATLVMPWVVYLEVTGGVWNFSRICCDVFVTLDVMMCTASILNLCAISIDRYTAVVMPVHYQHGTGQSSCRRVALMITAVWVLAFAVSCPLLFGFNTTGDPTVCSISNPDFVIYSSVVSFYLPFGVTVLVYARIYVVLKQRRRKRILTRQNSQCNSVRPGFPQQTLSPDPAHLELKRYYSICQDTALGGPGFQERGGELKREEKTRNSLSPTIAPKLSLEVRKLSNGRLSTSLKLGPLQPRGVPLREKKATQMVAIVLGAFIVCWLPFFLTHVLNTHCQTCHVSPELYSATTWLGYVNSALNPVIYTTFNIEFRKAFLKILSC
T2 sequence (P14416 whole entry, canonical isoform): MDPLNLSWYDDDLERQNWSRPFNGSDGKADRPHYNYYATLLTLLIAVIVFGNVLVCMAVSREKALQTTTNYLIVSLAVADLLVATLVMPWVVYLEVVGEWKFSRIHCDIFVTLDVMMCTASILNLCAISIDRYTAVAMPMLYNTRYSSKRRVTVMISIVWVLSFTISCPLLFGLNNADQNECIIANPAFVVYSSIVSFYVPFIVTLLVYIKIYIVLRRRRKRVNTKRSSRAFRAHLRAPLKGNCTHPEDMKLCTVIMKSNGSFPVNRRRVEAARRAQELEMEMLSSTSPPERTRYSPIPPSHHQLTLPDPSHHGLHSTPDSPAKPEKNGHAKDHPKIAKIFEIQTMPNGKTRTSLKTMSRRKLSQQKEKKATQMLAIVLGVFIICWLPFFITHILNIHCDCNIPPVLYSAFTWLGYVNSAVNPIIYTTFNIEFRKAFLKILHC

In the case of `Cc1nc(N2CCNCC2)c(Br)cc1NS(=O)(=O)c1ccc([C@H](C)CF)cc1` [Example 7, N-(5-Bromo-2-methyl-6-piperazin-1-yl-pyridin-3-yl)-4-((S)-2-fluoro-1-methyl-ethyl)-benzenesulfonamide, reference compound], the Ki in test [1] is < 1000 nM. Further, the “Selectivity vs. D2L, Ki(D2L)/Ki(D3)” value in test [2] was >10.
On the same counts, the results for `Cc1nc(N2CCNCC2)ccc1NS(=O)(=O)c1ccc([C@H](C)CF)cc1` [Example 6, 4-((S)-2-Fluoro-1-methyl-ethyl)-N-[2-methyl-6-piperazin-1-yl-pyridin-3-yl]-benzenesulfonamide] are < 10 nM and >50.
On to `Cc1nc(N2CCNCC2)ccc1NS(=O)(=O)c1ccc([C@@H](C)CF)cc1` [Example 5, 4-((R)-2-Fluoro-1-methyl-ethyl)-N-[2-methyl-6-piperazin-1-yl-pyridin-3-yl]-benzenesulfonamide], for which the Ki in test [1] is < 10 nM. In addition, the “Selectivity vs. D2L, Ki(D2L)/Ki(D3)” value in test [2] is reported as >50.
On the same counts, the results for `COc1nc(N2CCNCC2)ccc1NS(=O)(=O)c1ccc([C@@H](C)CF)cc1` [Example 14, 4-((R)-2-Fluoro-1-methyl-ethyl)-N-(2-methoxy-6-piperazin-1-yl-pyridin-3-yl)-benzenesulfonamide] are < 10 nM and >50.
As for `Cc1nc(N2CCN[C@@H](C)C2)ccc1NS(=O)(=O)c1ccc([C@@H](C)CF)cc1` [Example 2, 4-((R)-2-Fluoro-1-methyl-ethyl)-N-[2-methyl-6-((S)-3-methyl-piperazin-1-yl)-pyridin-3-yl]-benzenesulfonamide], in test [1], the Ki was < 10 nM. Moreover, the “Selectivity vs. D2L, Ki(D2L)/Ki(D3)” value in test [2] is recorded as >50.
The corresponding values for `Cc1nc(N2CCNCC2)ccc1NS(=O)(=O)c1ccc([C@H](C)C(F)F)cc1` [Example 9, 4-((S)-2,2-Difluoro-1-methyl-ethyl)-N-(2-methyl-6-piperazin-1-yl-pyridin-3-yl)-benzenesulfonamide] are < 10 nM and >50.
`Cc1nc(N2CCNCC2)ccc1NS(=O)(=O)c1ccc([C@@H](C)C(F)F)cc1` [Example 10, 4-((R)-2,2-Difluoro-1-methyl-ethyl)-N-(2-methyl-6-piperazin-1-yl-pyridin-3-yl)-benzenesulfonamide]: the Ki in test [1] is < 10 nM. In addition, in test [2], the “Selectivity vs. D2L, Ki(D2L)/Ki(D3)” value is listed as >50.
`Cc1nc(N2CCNCC2)ccc1NS(=O)(=O)c1ccc([C@H](C)C(F)(F)F)cc1` [Example 13, 4-((S)-2,2,2-Trifluoro-1-methyl-ethyl)-N-(2-methyl-6-piperazin-1-yl-pyridin-3-yl)-benzenesulfonamide]: in test [1], the Ki was < 10 nM. Moreover, the “Selectivity vs. D2L, Ki(D2L)/Ki(D3)” value in test [2] is on record as >50.
The corresponding values for `COc1nc(N2CCNCC2)ccc1NS(=O)(=O)c1ccc([C@H](C)CF)cc1` [Example 15, 4-((S)-2-Fluoro-1-methyl-ethyl)-N-(2-methoxy-6-piperazin-1-yl-pyridin-3-yl)-benzenesulfonamide] are < 10 nM and >50.
For the compound `COc1nc(N2CCNCC2)ccc1NS(=O)(=O)c1ccc(C(C)C(F)F)cc1` (centres unmarked) [Example 16, 4-(2,2-Difluoro-1-methyl-ethyl)-N-(2-methoxy-6-piperazin-1-yl-pyridin-3-yl)-benzenesulfonamide], in test [1], the Ki is < 10 nM. The “Selectivity vs. D2L, Ki(D2L)/Ki(D3)” value in test [2] is given as >50.
On the same counts, the results for `COc1nc(N2CCNCC2)ccc1NS(=O)(=O)c1ccc([C@H](C)C(F)(F)F)cc1` [Example 18, N-(2-Methoxy-6-piperazin-1-yl-pyridin-3-yl)-4-((S)-2,2,2-trifluoro-1-methyl-ethyl)-benzenesulfonamide] are < 10 nM and >50.
The corresponding values for `Cc1nc(N2CCNCC2)ccc1NS(=O)(=O)c1ccc(C(C)C(F)(F)F)cc1` (centres unmarked) [Example 11, 4-(2,2,2-Trifluoro-1-methyl-ethyl)-N-(2-methyl-6-piperazin-1-yl-pyridin-3-yl)-benzenesulfonamide] are < 10 nM and >50.
The corresponding values for `Cc1nc(N2CCNCC2)ccc1NS(=O)(=O)c1ccc(C(C)C(F)F)cc1` (centres unmarked) [Example 8, 4-(2,2-Difluoro-1-methyl-ethyl)-N-(2-methyl-6-piperazin-1-yl-pyridin-3-yl)-benzenesulfonamide] are < 10 nM and >50.
On to `Cc1nc(N2CCN[C@@H](C)C2)ccc1NS(=O)(=O)c1ccc([C@H](C)CF)cc1` [Example 1, 4-((S)-2-Fluoro-1-methyl-ethyl)-N-[2-methyl-6-((S)-3-methyl-piperazin-1-yl)-pyridin-3-yl]-benzenesulfonamide], for which the Ki in test [1] was < 10 nM. Further, in test [2], the “Selectivity vs. D2L, Ki(D2L)/Ki(D3)” value was >50.
The corresponding values for `COc1nc(N2CCNCC2)ccc1NS(=O)(=O)c1ccc(C(C)C(F)(F)F)cc1` (centres unmarked) [Example 17, N-(2-Methoxy-6-piperazin-1-yl-pyridin-3-yl)-4-(2,2,2-trifluoro-1-methyl-ethyl)-benzenesulfonamide] are < 10 nM and >50.
The corresponding values for `Cc1nc(N2CCNCC2)ccc1NS(=O)(=O)c1ccc([C@@H](C)C(F)(F)F)cc1` [Example 12, 4-((R)-2,2,2-Trifluoro-1-methyl-ethyl)-N-(2-methyl-6-piperazin-1-yl-pyridin-3-yl)-benzenesulfonamide] are < 10 nM and >50.
